PubChem BioAssay AID330 (DTP/NCI, 2004)
Several values for one entry are separate records, joined by “and”; a condition that tells them apart may be missing. Equal entries are not always repeated. Inconclusive results and toxic doses are left out. Rule for the calls: active = survival T/C of 150% or more; inactive = T/C below 125% in these data.

System: P388 leukemia ip, CD2F1 mice, survival T/C
Experiment: NCI In Vivo Anticancer Drug Screen. Data for tumor model P388 Leukemia (intraperitoneal) in CD2F1 (CDF1) mice
Conditions: endpoint: median survival time, higher = longer survival
Method in brief: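 Mice carrying the transplanted tumor received test compound or vehicle. Survival was recorded in each group, and the value is the treated-group measurement divided by that of the vehicle-treated control group.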

[1] = dose: 100.0 mg/kg/injection, schedule: Q01DX001 (ip), vehicle: saline with Tween-80
[2] = dose: 200.0 mg/kg/injection, schedule: Q01DX001 (ip), vehicle: saline with Tween-80
[3] = dose: 400.0 mg/kg/injection, schedule: Q01DX001 (ip), vehicle: saline with Tween-80
[4] = dose: 60.0 mg/kg/injection, schedule: Q01DX005 (ip), vehicle: saline with Tween-80
[5] = dose: 100.0 mg/kg/injection, schedule: Q04DX002 (ip), vehicle: saline with Tween-80
[6] = dose: 120.0 mg/kg/injection, schedule: Q01DX005 (ip), vehicle: saline with Tween-80
[7] = dose: 200.0 mg/kg/injection, schedule: Q04DX002 (ip), vehicle: saline with Tween-80
[8] = dose: 240.0 mg/kg/injection, schedule: Q01DX005 (ip), vehicle: saline with Tween-80
[9] = dose: 400.0 mg/kg/injection, schedule: Q04DX002 (ip), vehicle: saline with Tween-80
[10] = dose: 100.0 mg/kg/injection, schedule: Q01DX009 (ip), vehicle: Klucel (hydroxypropylcellulose) (HPC)
[11] = dose: 200.0 mg/kg/injection, schedule: Q01DX009 (ip), vehicle: Klucel (hydroxypropylcellulose) (HPC)
[12] = dose: 50.0 mg/kg/injection, schedule: Q01DX005 (ip), vehicle: saline with Tween-80
[13] = dose: 100.0 mg/kg/injection, schedule: Q01DX005 (ip), vehicle: saline with Tween-80
[14] = dose: 50.0 mg/kg/injection, schedule: Q01DX005 (ip), vehicle: Klucel (hydroxypropylcellulose) (HPC)
[15] = dose: 100.0 mg/kg/injection, schedule: Q01DX005 (ip), vehicle: Klucel (hydroxypropylcellulose) (HPC)
[16] = dose: 50.0 mg/kg/injection, schedule: Q01DX009 (ip), vehicle: saline with Tween-80
[17] = dose: 100.0 mg/kg/injection, schedule: Q01DX009 (ip), vehicle: saline with Tween-80
[18] = dose: 200.0 mg/kg/injection, schedule: Q01DX009 (ip), vehicle: saline with Tween-80

Measured: T/C

CCC[C@@H]1[C@@H](CCC)N1C(=N)OCC
inactive: dose: 12.5 mg/kg/injection, schedule: Q01DX005 (ip), vehicle: suspension in saline 99 % of control | dose: 25.0 mg/kg/injection, schedule: Q01DX005 (ip), vehicle: suspension in saline 106 % of control | dose: 50.0 mg/kg/injection, schedule: Q01DX005 (ip), vehicle: saline 103 % of control | dose: 50.0 mg/kg/injection, schedule: Q01DX005 (ip), vehicle: suspension in saline 106 % of control

CCCCCCCCCCCC(=O)NC(=O)N1CCOCC1
inactive: [1] 95 % of control | [2] 100 % of control | [3] 100 % of control

O=C1CSC(c2cccnc2)N1CCN1C(=O)CSC1c1cccnc1 (centres undefined)
inactive: [4] 105 % of control | [5] 112 % of control | [6] 105 % of control | [7] 112 % of control | [8] 101 % of control | [9] 109 % of control

O=C(CCl)c1ccc2ccc3c(c2c1)Nc1ccccc1S3
inactive: dose: 50.0 mg/kg/injection, schedule: Q01DX009 (ip), vehicle: Klucel (hydroxypropylcellulose) (HPC) 96 % of control | [10] 99 % of control | [11] 93 % of control

O=C1OC[C@@H]2[C@H]1[C@H]1O[C@@H]2c2cc3ccccc3cc21
inactive: [4] 104 % of control | [6] 101 % of control | [8] 101 % of control

CC1=CC2N(C=C1)C(c1ccc(Cl)cc1)=NON2c1cc(C)ccn1 (centres undefined)
inactive: [12] 92 % of control | [13] 86 % of control and 94 % of control | [6] 87 % of control | dose: 200.0 mg/kg/injection, schedule: Q01DX005 (ip), vehicle: saline with Tween-80 100 % of control | [8] 93 % of control

CCCCCCCCCCCCCCCC[N+]1(CC)CCOCC1 (tested in a mixture with another compound)
inactive: dose: 3.13 mg/kg/injection, schedule: Q01DX009 (ip), vehicle: Klucel (hydroxypropylcellulose) (HPC) 96 % of control | dose: 6.25 mg/kg/injection, schedule: Q01DX009 (ip), vehicle: Klucel (hydroxypropylcellulose) (HPC) 113 % of control | dose: 12.5 mg/kg/injection, schedule: Q01DX009 (ip), vehicle: Klucel (hydroxypropylcellulose) (HPC) 115 % of control

COc1cccc(-c2nsc(=O)o2)c1
inactive: [10] 108 % of control | [11] 109 % of control

NC(=S)N/N=C/c1c(-c2ccccc2)nc2n1CCS2
inactive: dose: 100.0 mg/kg/injection, schedule: Q01DX001 (ip), vehicle: Klucel (hydroxypropylcellulose) (HPC) 100 % of control | dose: 200.0 mg/kg/injection, schedule: Q01DX001 (ip), vehicle: Klucel (hydroxypropylcellulose) (HPC) 104 % of control | dose: 400.0 mg/kg/injection, schedule: Q01DX001 (ip), vehicle: Klucel (hydroxypropylcellulose) (HPC) 109 % of control

C(=C\c1ccncc1)/c1ccccc1
inactive: [14] 92 % of control | [15] 90 % of control

CCCCNC(=S)N/N=C/c1nc2ccccc2c(=O)n1-c1ccc(Br)cc1
inactive: [5] 98 % of control | [7] 89 % of control

O=C(OC1CC2CCC1C2)c1cc([N+](=O)[O-])cc([N+](=O)[O-])c1 (centres undefined)
inactive: [16] 107 % of control | [17] 100 % of control | [5] 108 % of control | [18] 90 % of control | [7] 105 % of control | [9] 100 % of control

N#CC(C(N)=O)C(CC(=O)c1ccccc1)c1ccccc1 (centres undefined)
inactive: [14] 100 % of control | [15] 102 % of control | dose: 200.0 mg/kg/injection, schedule: Q01DX005 (ip), vehicle: Klucel (hydroxypropylcellulose) (HPC) 101 % of control

COc1ccc2cc1Oc1ccc(cc1)CC1c3c(c(OC)c(OC)c(OC)c3Oc3cc4c(cc3OC)CCN(C)C4C2)CCN1C (centres undefined)
inactive: dose: 15.0 mg/kg/injection, schedule: Q01DX009 (ip), vehicle: saline 94 % of control | dose: 30.0 mg/kg/injection, schedule: Q01DX009 (ip), vehicle: saline 94 % of control | dose: 60.0 mg/kg/injection, schedule: Q01DX009 (ip), vehicle: saline 103 % of control

COc1cc(C2NCCc3cc4c(cc32)OCO4)cc(OC)c1OC (centres undefined)
inactive: [12] 100 % of control | [13] 100 % of control

O=C(CSC(=S)N1CCCCC1)c1ccccc1
inactive: dose: 12.5 mg/kg/injection, schedule: Q01DX009 (ip), vehicle: distilled water + Tween-80 95 % of control | dose: 25.0 mg/kg/injection, schedule: Q01DX009 (ip), vehicle: distilled water + Tween-80 101 % of control | dose: 50.0 mg/kg/injection, schedule: Q01DX009 (ip), vehicle: distilled water + Tween-80 100 % of control | dose: 100.0 mg/kg/injection, schedule: Q01DX009 (ip), vehicle: distilled water + Tween-80 101 % of control | dose: 200.0 mg/kg/injection, schedule: Q01DX009 (ip), vehicle: distilled water + Tween-80 99 % of control

COc1ccc2c(c1)CC(CN1CCC3(CC1)C(=O)NCN3c1ccccc1)O2 (centres undefined)
inactive: [16] 104 % of control | [17] 101 % of control | [18] 100 % of control

O=C(CNC(=O)c1ccccc1)N/N=C/c1ccccc1O
inactive: [4] 100 % of control | [6] 101 % of control | [8] 100 % of control

COc1ccc(C(c2c(O)c3ccccc3oc2=O)N2CCOCC2)cc1 (centres undefined)
inactive: dose: 15.0 mg/kg/injection, schedule: Q01DX005 (ip), vehicle: saline with Tween-80 99 % of control | dose: 30.0 mg/kg/injection, schedule: Q01DX005 (ip), vehicle: saline with Tween-80 97 % of control | [4] 100 % of control and 94 % of control

COc1ccc(NC(=O)C2C(=O)C(=O)N(c3ccc(OC)cc3)C2=O)cc1 (centres undefined)
inactive: [5] 100 % of control | [7] 101 % of control

CC(C)(O)c1ccccc1Sc1ccccc1C(C)(C)O
inactive: [1] 102 % of control | [2] 103 % of control | [3] 95 % of control

O=C([Se][Se]C(=O)c1ccc(Cl)cc1)c1ccc(Cl)cc1
inactive: dose: 12.5 mg/kg/injection, schedule: Q01DX009 (ip), vehicle: saline with Tween-80 99 % of control | dose: 25.0 mg/kg/injection, schedule: Q01DX009 (ip), vehicle: saline with Tween-80 100 % of control | [16] 100 % of control | [17] 98 % of control

COC(=O)C/C(=C\c1cn(C(C)=O)c2ccccc12)[N+](=O)[O-]
inactive: dose: 6.25 mg/kg/injection, schedule: Q01DX005 (ip), vehicle: Klucel (hydroxypropylcellulose) (HPC) 89 % of control | dose: 12.5 mg/kg/injection, schedule: Q01DX005 (ip), vehicle: Klucel (hydroxypropylcellulose) (HPC) 98 % of control | dose: 25.0 mg/kg/injection, schedule: Q01DX005 (ip), vehicle: Klucel (hydroxypropylcellulose) (HPC) 91 % of control

C#CCN(C)CCO
inactive: dose: 100.0 mg/kg/injection, schedule: Q01DX009 (ip), vehicle: saline 111 % of control | dose: 200.0 mg/kg/injection, schedule: Q01DX009 (ip), vehicle: saline 111 % of control | dose: 400.0 mg/kg/injection, schedule: Q01DX009 (ip), vehicle: saline 116 % of control
